Measurements published in ChEMBL document CHEMBL4622872, “Discovery of DS-1971a, a Potent, Selective NaV1.7 Inhibitor” (J Med Chem, 2020).
In brackets after ≈: the same amount, converted by molar mass.

What was measured:
[1] = Distribution coefficient, log D of the compound in 1-octanol and PBS buffer at pH 7.4 measured after 30 mins by LC-MS analysis; assay type: physicochemical; conditions: 1-octanol/PBS buffer
[2] = Aqueous thermodynamic solubility of the compound at pH 6.8 measured after 4 hrs by UV-HPLC analysis; assay type: physicochemical; conditions: buffer, pH 6.8; read-out: Therm_solubility
[3] = Stability of the compound in mouse liver microsomes assessed as parent compound remaining measured after 0.5 hrs; assay type: ADME, Microsome; conditions: mouse liver microsomes, read-out: Stability

Row | logD at 0.5 h [1] | solubility thermodynamic at 4 h [2] | remaining at 0.5 h [3] | SMILES
1 | 0.1 | 1800 µM (≈ 784 µg/mL) | 80% | Cn1nccc1[C@H]1CCC[C@@H]1Oc1cc(F)c(S(=O)(=O)Nc2ccncn2)c(F)c1 (racemic)
2 | 0.9 | 240 µM (≈ 108 µg/mL) | 88% | Cn1nccc1[C@H]1CCC[C@@H]1Oc1cc(F)c(S(=O)(=O)Nc2ccncn2)cc1Cl (racemic)
3 | 0.9 | 1800 µM (≈ 820 µg/mL) | 69% | Cc1nsc(NS(=O)(=O)c2cc(F)c(O[C@H]3CCC[C@@H]3c3ccnn3C)cc2F)n1 (racemic)
4 | 0.3 | 1900 µM (≈ 854 µg/mL) | 80% | Cn1nccc1[C@H]1CCCC[C@@H]1Oc1cc(F)c(S(=O)(=O)Nc2ccncn2)cc1F (racemic)
